Source: PubChem BioAssay (NCI)
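Following 48 hours of exposure in 96-well plates, responses at five concentrations were used to interpolate endpoints linearly. At the TGI there is no net growth.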

Key:
Assay in all cases: DTP human tumour cell line panel, 48 h
[1] = test system: A498 renal
[2] = test system: SK-OV-3 ovarian
[3] = test system: SNB-19 CNS
[4] = test system: SF-268 CNS
[5] = test system: HOP-62 NSCLC
[6] = test system: SR leukemia
[7] = test system: CCRF-CEM leukemia
[8] = test system: OVCAR-4 ovarian
[9] = test system: HCT-15 colon
[10] = test system: M14 melanoma
[11] = test system: LOX IMVI melanoma
[12] = test system: 786-0 renal
[13] = test system: HL-60(TB) leukemia
[14] = test system: KM12 colon
[15] = test system: NCI-H226 lung
[16] = test system: NCI-H23 lung
[17] = test system: OVCAR-3 ovarian
[18] = test system: MDA-MB-435
[19] = test system: SNB-75 CNS
[20] = test system: IGROV1 ovarian
[21] = test system: MDA-N
[22] = test system: HT29 colon
[23] = test system: RPMI-8226 leukemia
[24] = test system: A549 NSCLC
[25] = test system: NCI-H522 lung
[26] = test system: SK-MEL-2 melanoma
[27] = test system: OVCAR-8 ovarian
[28] = test system: SK-MEL-28 melanoma
[29] = test system: EKVX NSCLC
[30] = test system: COLO 205 colon
[31] = test system: ACHN renal
[32] = test system: NCI-H460 lung
[33] = test system: MDA-MB-231 breast
[34] = test system: MCF7 breast
[35] = test system: UACC-257 melanoma
[36] = test system: T-47D breast
[37] = test system: CAKI-1 renal
[38] = test system: SF-539 CNS
[39] = test system: TK-10 renal
[40] = test system: UACC-62 melanoma
[41] = test system: SN12C renal
[42] = test system: RXF 393 renal
[43] = test system: PC-3 prostate
[44] = test system: MOLT-4 leukemia
[45] = test system: HOP-92 NSCLC
[46] = test system: OVCAR-5 ovarian
[47] = test system: HCC-2998 colon
[48] = test system: SW-620 colon
[49] = test system: SK-MEL-5 melanoma
[50] = test system: DU-145 prostate
[51] = test system: SF-295 CNS
[52] = test system: NCI/ADR-RES ovarian
[53] = test system: U251 CNS
[54] = test system: K-562 leukemia
[55] = test system: HCT-116 colon
[56] = test system: HS 578T breast
[57] = test system: UO-31 renal
[58] = test system: MALME-3M melanoma

For `Cc1cc(C)n(C(=O)CSc2nc3ccc(I)cc3c(=O)n2Cc2ccccc2)n1`, the TGI [1] was 63.4 µM, the TGI [2] was > 100 µM and the TGI [3] was > 100 µM. For the same molecule, the TGI [4] was 71 µM, the TGI [5] was 70.3 µM and the TGI [6] was > 100 µM. For the same molecule, the TGI [7] was > 100 µM, the TGI [8] was > 100 µM and the TGI [9] was > 100 µM. The TGI [10] was > 100 µM, the TGI [11] was > 100 µM and the TGI [12] was > 100 µM. The TGI [13] was > 100 µM, the TGI [14] was > 100 µM and the TGI [15] was > 100 µM. For the same molecule, the TGI [16] was > 100 µM, the TGI [17] was > 100 µM and the TGI [18] was > 100 µM. For the same molecule, the TGI [19] was 63.4 µM, the TGI [20] was 78.8 µM and the TGI [21] was > 100 µM. For the same molecule, the TGI [22] was > 100 µM, the TGI [23] was > 100 µM and the TGI [24] was > 100 µM. The TGI [25] was 62.1 µM, the TGI [26] was > 100 µM and the TGI [27] was 70.3 µM. The TGI [28] was > 100 µM, the TGI [29] was > 100 µM and the TGI [30] was > 100 µM. For the same molecule, the TGI [31] was > 100 µM, the TGI [32] was > 100 µM and the TGI [33] was 66.3 µM. The TGI [34] was > 100 µM, the TGI [35] was > 100 µM and the TGI [36] was > 100 µM. The TGI [37] was 22.2 µM, the TGI [38] was > 100 µM and the TGI [39] was > 100 µM. For the same molecule, the TGI [40] was > 100 µM, the TGI [41] was > 100 µM and the TGI [42] was 62.4 µM. The TGI [43] was 63.7 µM, the TGI [44] was > 100 µM and the TGI [45] was 53 µM. For the same molecule, the TGI [46] was > 100 µM, the TGI [47] was > 100 µM and the TGI [48] was > 100 µM. For the same molecule, the TGI [49] was > 100 µM, the TGI [50] was > 100 µM and the TGI [51] was > 100 µM. The TGI [52] was > 100 µM, the TGI [53] was > 100 µM and the TGI [54] was > 100 µM. The TGI [55] was > 100 µM and the TGI [56] was 44.6 µM.
In the case of `CCOC(=O)C(NC(=O)CC)(Nc1ccccc1OC)C(F)(F)F` (centres undefined), the TGI [2] was > 100 µM, the TGI [3] was > 100 µM and the TGI [4] was > 100 µM. For the same molecule, the TGI [6] was > 100 µM, the TGI [57] was > 100 µM and the TGI [7] was > 100 µM. For the same molecule, the TGI [8] was > 100 µM, the TGI [9] was > 100 µM and the TGI [10] was > 100 µM. For the same molecule, the TGI [11] was > 100 µM, the TGI [13] was > 100 µM and the TGI [14] was > 100 µM. The TGI [16] was > 100 µM, the TGI [17] was > 100 µM and the TGI [18] was > 100 µM. The TGI [19] was > 100 µM, the TGI [20] was > 100 µM and the TGI [21] was > 100 µM. The TGI [22] was > 100 µM, the TGI [23] was > 100 µM and the TGI [24] was > 100 µM. For the same molecule, the TGI [25] was > 100 µM, the TGI [26] was > 100 µM and the TGI [27] was > 100 µM. For the same molecule, the TGI [28] was > 100 µM, the TGI [29] was > 100 µM and the TGI [30] was > 100 µM. The TGI [31] was > 100 µM, the TGI [32] was > 100 µM and the TGI [33] was > 100 µM. For the same molecule, the TGI [34] was > 100 µM, the TGI [35] was > 100 µM and the TGI [36] was > 100 µM. For the same molecule, the TGI [37] was > 100 µM, the TGI [38] was > 100 µM and the TGI [39] was > 100 µM. The TGI [40] was > 100 µM, the TGI [41] was > 100 µM and the TGI [42] was > 100 µM. The TGI [43] was > 100 µM, the TGI [44] was > 100 µM and the TGI [45] was > 100 µM. The TGI [46] was > 100 µM, the TGI [47] was > 100 µM and the TGI [48] was > 100 µM. The TGI [49] was > 100 µM, the TGI [50] was > 100 µM and the TGI [51] was > 100 µM. For the same molecule, the TGI [52] was > 100 µM, the TGI [53] was > 100 µM and the TGI [54] was > 100 µM. For the same molecule, the TGI [55] was > 100 µM and the TGI [56] was > 100 µM.
Work on `Cc1cc2c3ccccc3nc2c2cc[nH]c(C)c12` yielded a TGI [2] of 49.6 µM, a TGI [3] of 48.9 µM and a TGI [4] of 31.2 µM. For the same molecule, the TGI [5] was > 64.7 µM, the TGI [6] was > 74.8 µM and the TGI [57] was 45.1 µM. For the same molecule, the TGI [7] was 4.77 µM, the TGI [8] was > 100 µM and the TGI [9] was 7.59 µM. For the same molecule, the TGI [10] was 3.42 µM, the TGI [11] was 4.89 µM and the TGI [12] was 3.06 µM. For the same molecule, the TGI [13] was 4.23 µM, the TGI [14] was > 31.6 µM and the TGI [15] was 28.2 µM. The TGI [16] was > 31.6 µM, the TGI [17] was > 35.4 µM and the TGI [18] was 3.45 µM. For the same molecule, the TGI [19] was 36.5 µM, the TGI [20] was > 55.9 µM and the TGI [21] was 3.3 µM. The TGI [22] was > 80.6 µM, the TGI [23] was 20 µM and the TGI [24] was 50.8 µM. The TGI [25] was 4.49 µM, the TGI [26] was 23.3 µM and the TGI [27] was 31.6 µM. The TGI [28] was 3.3 µM, the TGI [29] was > 70.7 µM and the TGI [30] was 4.31 µM. For the same molecule, the TGI [31] was 52.4 µM, the TGI [33] was 17.1 µM and the TGI [34] was > 100 µM. The TGI [35] was 46.9 µM, the TGI [36] was 38.9 µM and the TGI [37] was 51 µM. For the same molecule, the TGI [38] was 11.4 µM, the TGI [39] was 37.6 µM and the TGI [40] was 27.9 µM. The TGI [41] was 18.5 µM, the TGI [43] was > 85.5 µM and the TGI [44] was 22.1 µM. The TGI [45] was 49.9 µM, the TGI [46] was 36.5 µM and the TGI [47] was 6.67 µM. The TGI [48] was 6.87 µM, the TGI [49] was 20.2 µM and the TGI [50] was 29.8 µM. For the same molecule, the TGI [58] was 28.8 µM, the TGI [51] was > 88.5 µM and the TGI [52] was > 100 µM. For the same molecule, the TGI [53] was 5.62 µM, the TGI [54] was 3.59 µM and the TGI [55] was 3.57 µM. The TGI [56] was > 65.5 µM.
